In patent publication US20240034736A1, “HSD17B13 INHIBITORS AND USES THEREOF” (FL2022-001, Inc., priority 2020, published 2024):

Biological target: Recombinant human HSD17B13 enzyme (Homo sapiens (Human), UniProt Q7Z5P4)
Assay: HSD17b13 NAD(P)H-Glo Biochemical Assay
Conditions: for IC50: 50 uM estradiol, 1 mM NAD+, read-out: HSD17β13 IC50; for inhibition at 30 µM: read-out: HSD17β13 inhibition at 30 uM
Outline: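 Luminescent NAD(P)H-Glo detection (1 h, RT) quantified cofactor reduction after a 3 h, 37° C reaction of human HSD17B13 with estradiol (50 uM final) and NAD+ (1 mM final). Compounds were first pre-incubated 20 min at RT with enzyme in Tris pH 7.4 buffer containing Tween-20 and BSA.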

Recombinant human HSD17B13 enzyme, sequence (Q7Z5P4 20-300): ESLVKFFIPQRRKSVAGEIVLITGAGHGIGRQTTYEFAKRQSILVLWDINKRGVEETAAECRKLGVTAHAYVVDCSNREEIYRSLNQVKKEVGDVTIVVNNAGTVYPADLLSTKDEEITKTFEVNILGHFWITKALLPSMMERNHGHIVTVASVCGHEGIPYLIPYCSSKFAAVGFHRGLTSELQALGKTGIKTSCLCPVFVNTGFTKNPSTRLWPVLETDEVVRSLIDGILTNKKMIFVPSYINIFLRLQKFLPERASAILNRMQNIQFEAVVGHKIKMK

Row | Structure (SMILES) | IC50 [nM] | inhibition at 30 µM [%]
1 | CS(=O)(=O)N1CCN(c2cc3cnn(-c4ccc(Cl)c(O)c4F)c3cn2)CC1 [Compound 19.27, 6-Chloro-2-fluoro-3-(5-(4-(methylsulfonyl)piperazin-1-yl)-1H-pyrazolo[3,4-c]pyridine-1-yl)phenol] | 1000 to 30000 | 
2 | Cc1cc(-n2ncc3cc(N4CCN(S(C)(=O)=O)CC4)ncc32)c(F)c(O)c1F [Compound 19.28, 2,6-Difluoro-3-methyl-5-(5-(4-(methylsulfonyl)piperazin-1-yl)-1H-pyrazolo[3,4-c]pyridine-1-yl)phenol] | 1000 to 30000 | 
3 | CS(=O)(=O)N1CCN(c2cc3cnn(-c4cc(F)c(F)c(O)c4F)c3cn2)CC1 [Compound 19.29, 2,3,6-Trifluoro-5-(5-(4-(methylsulfonyl)piperazin-1-yl)-1H-pyrazolo[3,4-c]pyridine-1-yl)phenol] | 100 to 1000 | 
4 | CS(=O)(=O)N1CCN(c2cc3cn(-c4cc(F)c(F)c(O)c4F)nc3cn2)CC1 [Compound 19.30, 2,3,6-Trifluoro-5-(5-(4-(methylsulfonyl)piperazin-1-yl)-2H-pyrazolo[3,4-c]pyridine-2-yl)phenol] | 100 to 1000 | 
5 | CS(=O)(=O)N1CCN(c2cc3cnn(-c4ncc(Cl)c(O)c4F)c3cn2)CC1 [Compound 19.31, 5-Chloro-3-fluoro-2-(5-(4-(methylsulfonyl)piperazin-1-yl)-1H-pyrazolo[3,4-c]pyridine-1-yl)pyridine-4-ol] | 1000 to 30000 | 
6 | CC1(C)COCCN1c1cc2cnn(-c3cc(O)c(F)c(C(F)(F)F)c3)c2cn1 [Compound 19.32, 5-(5-(3,3-Dimethylmorpholino)-1H-pyrazolo[3,4-c]pyridine-1-yl)-2-fluoro-3-(trifluoromethyl)phenol] | 100 to 1000 | 
7 | CC1CN(S(C)(=O)=O)CCN1c1cc2cnn(-c3cc(O)c(F)c(C(F)(F)F)c3)c2cn1 (centres unmarked) [Compound 19.33, 2-Fluoro-5-(5-(2-methyl-4-(methylsulfonyl)piperazin-1-yl)-1H-pyrazolo[3,4-c]pyridine-1-yl)-3-(trifluoromethyl)phenol] | 100 to 1000 | 
8 | CC1CN(S(C)(=O)=O)CCN1c1cc2cn(-c3cc(O)c(F)c(C(F)(F)F)c3)nc2cn1 (centres unmarked) [Compound 19.34, 2-Fluoro-5-(5-(2-methyl-4-(methylsulfonyl)piperazin-1-yl)-2H-pyrazolo[3,4-c]pyridine-2-yl)-3-(trifluoromethyl)phenol] | 100 to 1000 | 
9 | CS(=O)(=O)N1CCN(c2cc3cn(-c4cc(O)cc(C#N)c4)nc3cn2)CC1 [Compound 19.35, 3-Hydroxy-5-(5-(4-(methylsulfonyl)piperazin-1-yl)-2H-pyrazolo[3,4-c]pyridine-2-yl)benzonitrile] |  | 49
10 | CS(=O)(=O)N1CCN(c2cc3cnn(-c4ccc(C#N)c(O)c4)c3cn2)CC1 [Compound 19.36, 2-Hydroxy-4-(5-(4-(methylsulfonyl)piperazin-1-yl)-1H-pyrazolo[3,4-c]pyridine-1-yl)benzonitrile] |  | 40
11 | CS(=O)(=O)N1CCN(c2cc3cn(-c4ccc(C#N)c(O)c4)nc3cn2)CC1 [Compound 19.37, 2-Hydroxy-4-(5-(4-(methylsulfonyl)piperazin-1-yl)-2H-pyrazolo[3,4-c]pyridine-2-yl)benzonitrile] |  | 43
12 | CS(=O)(=O)N1CCN(c2cc3cnn(-c4cc(C(F)(F)F)c(F)c(O)c4F)c3cn2)CC1 [Compound 19.38, 2,6-Difluoro-3-(5-(4-(methylsulfonyl)piperazin-1-yl)-1H-pyrazolo[3,4-c]pyridine-1-yl)-5-(trifluoromethyl)phenol] | 100 to 1000 | 
13 | CS(=O)(=O)N1CCN(c2cc3cnn(-c4cccc(O)c4C#N)c3cn2)CC1 [Compound 19.39, 2-Hydroxy-6-(5-(4-(methylsulfonyl)piperazin-1-yl)-1H-pyrazolo[3,4-c]pyridine-1-yl)benzonitrile] | 1000 to 30000 | 
14 | CS(=O)(=O)N1CCN(c2cc3cn(-c4cccc(O)c4C#N)nc3cn2)CC1 [Compound 19.40, 2-Hydroxy-6-(5-(4-(methylsulfonyl)piperazin-1-yl)-2H-pyrazolo[3,4-c]pyridine-2-yl)benzonitrile] |  | 39
15 | CS(=O)(=O)N1CCN(c2cc3cnn(-c4cc(O)ccc4C#N)c3cn2)CC1 [Compound 19.41, 4-Hydroxy-2-(5-(4-(methylsulfonyl)piperazin-1-yl)-1H-pyrazolo[3,4-c]pyridine-1-yl)benzonitrile] | 1000 to 30000 | 
16 | Cc1ccc(-n2ncc3cc(N4CCN(S(C)(=O)=O)CC4)ncc32)c(F)c1O [Compound 19.42, 2-Fluoro-6-methyl-3-(5-(4-(methylsulfonyl)piperazin-1-yl)-1H-pyrazolo[3,4-c]pyridine-1-yl)phenol] | 1000 to 30000 | 
17 | Cc1ccc(O)c(F)c1-n1ncc2cc(N3CCN(S(C)(=O)=O)CC3)ncc21 [Compound 19.43, 2-Fluoro-4-methyl-3-(5-(4-(methylsulfonyl)piperazin-1-yl)-1H-pyrazolo[3,4-c]pyridine-1-yl)phenol] |  | 45
18 | Cc1nn(-c2cc(C(F)(F)F)c(F)c(O)c2F)c2cnc(N3CCOCC34CC4)cc12 [Compound 19.44, 2,6-Difluoro-3-(3-methyl-5-(7-oxa-4-azaspiro[2.5]octan-4-yl)-1H-pyrazolo[3,4-c]pyridine-1-yl)-5-(trifluoromethyl)phenol] | < 100 | 
19 | Cc1nn(-c2cc(C(F)(F)F)c(F)c(O)c2F)c2cnc(N3CCN(S(C)(=O)=O)CC3)cc12 [Compound 19.45, 2,6-Difluoro-3-(3-methyl-5-(4-(methylsulfonyl)piperazin-1-yl)-1H-pyrazolo[3,4-c]pyridine-1-yl)-5-(trifluoromethyl)phenol] | 100 to 1000 | 
20 | CS(=O)(=O)N1CCN(c2cc3cn(-c4cc(O)c(F)c(C(F)(F)F)c4)nc3cc2Cl)CC1 [Compound 19.46, 5-(6-Chloro-5-(4-(methylsulfonyl)piperazin-1-yl)-2H-indazol-2-yl)-2-fluoro-3-(trifluoromethyl)phenol] | < 100 | 
21 | Cc1nn(-c2cc(C(F)(F)F)c(F)c(O)c2F)c2cnc(N(C)C3CCOCC3)cc12 [Compound 19.47, 2,6-Difluoro-3-(3-methyl-5-(methyl(tetrahydro-2H-pyran-4-yl)amino)-1H-pyrazolo[3,4-c]pyridin-1-yl)-5-(trifluoromethyl)phenol] | < 100 | 

More lines, now with the values ahead:

Row | IC50 [nM] | inhibition at 30 µM [%] | Structure (SMILES)
22 | 100 to 1000 |  | Cc1nn(-c2cc(C(F)(F)F)c(F)c(O)c2F)c2ccc(N3CCOCC34CC4)nc12 [Compound 19.48, 2,6-Difluoro-3-(3-methyl-5-(7-oxa-4-azaspiro[2.5]octan-4-yl)-1H-pyrazolo[4,3-b]pyridine-1-yl)-5-(trifluoromethyl)phenol]
23 | < 100 |  | Cc1nn(-c2cc(C(F)(F)F)c(F)c(O)c2F)c2ccc(N(C)C3CCOCC3)nc12 [Compound 19.49, 2,6-Difluoro-3-(3-methyl-5-(methyl(tetrahydro-2H-pyran-4-yl)amino)-1H-pyrazolo[4,3-b]pyridine-1-yl)-5-(trifluoromethyl)phenol]
24 | < 100 |  | Cc1nn(-c2cc(C(F)(F)F)c(F)c(O)c2F)c2cc(F)c(N3CCOCC34CC4)nc12 [Compound 19.50, 2,6-Difluoro-3-(6-fluoro-3-methyl-5-(7-oxa-4-azaspiro[2.5]octan-4-yl)-1H-pyrazolo[4,3-b]pyridine-1-yl)-5-(trifluoromethyl)phenol]
25 | 100 to 1000 |  | COC1CCN(c2cc3c(C)nn(-c4cc(C(F)(F)F)c(F)c(O)c4F)c3cn2)CC1 [Compound 19.51, 2,6-Difluoro-3-(5-(4-methoxypiperidin-1-yl)-3-methyl-1H-pyrazolo[3,4-c]pyridine-1-yl)-5-(trifluoromethyl)phenol]
26 | < 100 |  | COC1CCN(c2cc3c(C)nn(-c4cc(C(F)(F)F)c(F)c(O)c4F)c3cn2)C2(CC2)C1 (centres unmarked) [Compound 19.52, 2,6-Difluoro-3-(5-(7-methoxy-4-azaspiro[2.5]octan-4-yl)-3-methyl-1H-pyrazolo[3,4-c]pyridine-1-yl)-5-(trifluoromethyl)phenol]
27 | < 100 |  | Cc1nn(-c2cc(C(F)(F)F)c(F)c(O)c2F)c2cnc(N3CCN(S(C)(=O)=O)CC34CC4)cc12 [Compound 19.53, 2,6-Difluoro-3-(3-methyl-5-(7-(methylsulfonyl)-4,7-diazaspiro[2.5]octan-4-yl)-1H-pyrazolo[3,4-c]pyridine-1-yl)-5-(trifluoromethyl)phenol]
28 | < 100 |  | CCN(c1cc2c(C)nn(-c3cc(C(F)(F)F)c(F)c(O)c3F)c2cn1)C1CCOCC1 [Compound 19.54, 3-(5-(Ethyl(tetrahydro-2H-pyran-4-yl)amino)-3-methyl-1H-pyrazolo[3,4-c]pyridine-1-yl)-2,6-difluoro-5-(trifluoromethyl)phenol]
29 | 100 to 1000 |  | Cc1nn(-c2cc(C(F)(F)F)c(F)c(O)c2F)c2cnc(N3CCC(Oc4ccccc4)CC3)cc12 [Compound 19.55, 2,6-Difluoro-3-(3-methyl-5-(4-phenoxypiperidin-1-yl)-1H-pyrazolo[3,4-c]pyridine-1-yl)-5-(trifluoromethyl)phenol]
30 | < 100 |  | Cc1nn(-c2cc(C(F)(F)F)c(F)c(O)c2F)c2cnc(N3CCN(S(=O)(=O)c4ccccc4)CC3)cc12 [Compound 19.56, 2,6-Difluoro-3-(3-methyl-5-(4-(phenylsulfonyl)piperazin-1-yl)-1H-pyrazolo[3,4-c]pyridine-1-yl)-5-(trifluoromethyl)phenol]
31 | < 100 |  | Cc1nn(-c2cc(C(F)(F)F)c(F)c(O)c2F)c2cnc(N3CCN(S(=O)(=O)c4cnn(C)c4)CC3)cc12 [Compound 19.57, 2,6-Difluoro-3-(3-methyl-5-(4-((1-methyl-1H-pyrazol-4-yl)sulfonyl)piperazin-1-yl)-1H-pyrazolo[3,4-c]pyridin-1-yl)-5-(trifluoromethyl)phenol]
32 | < 100 |  | COCCOC1CCN(c2cc3c(C)nn(-c4cc(C(F)(F)F)c(F)c(O)c4F)c3cn2)CC1 [Compound 19.58, 2,6-Difluoro-3-(5-(4-(2-methoxyethoxy)piperidin-1-yl)-3-methyl-1H-pyrazolo[3,4-c]pyridin-1-yl)-5-(trifluoromethyl)phenol]
